From patent US10428054B2, “Kynurenine-3-monooxygenase inhibitors, pharmaceutical compositions, and methods of use thereof” (CHDI Foundation, Inc., priority 2013, dated 2019)
Read-outs that look alike come from different tables or passages of the source.

Molecular target: T1, KMO mouse enzyme (Mus musculus, UniProt Q91WN4)
T1 construct: KMO enzyme prepared at Evotec from mouse liver (4-6 weeks old) via mitochondria isolation; from tissue; host or cells: mouse liver (4-6 weeks old), mitochondria isolation, prepared at Evotec
Assay: KMO enzyme assay: L-Kynurenine hydroxylation to 3-Hydroxy-Kynurenine by LC/MS (protocols substantially similar to Biology Example 3)
Assay type: biochemical
Details: for inhibition at 10 µM: compound at 10 uM (stated in cell; head says 30 μM)
Method: A method of monitoring L-Kynurenine (KYN) hydroxylation to form 3-Hydroxy-Kynurenine (30H-KYN) by LC/MS is described. Product is quantified by multiple reaction monitoring (MRM method).
• Compound: Stock concentrations: 10 mM in 100% DMSO • Enzyme: KMO enzyme prepared at Evotec from mouse liver (4-6 weeks old) via mitochondria isolation as described in the literature • Substrate: L-Kynurenine (Sigma: Cat# K3750, stock concentration: 10 mM in 100 mM potassium phosphate buffer, pH 7.4) Assay Conditions: • Buffer: 100 mM potassium phosphate, pH 7.4, 200 μM NADPH, 0.4 U/ml G6P-DH (Glucose 6-phosphate Dehydrogenase), 3 mM G6P (D-Glucose 6-phosphate) • Assay Volume: 40 μl • Plate Format: 384 well plate, transparent (Matrix) • Read-Out: product (30H-KYN) quantification using product specific MRM • Reader: LC/MS/MS Assay Protocol: • prepare serial dilution (factor 3) of compound in 100% DMSO (top concentration=10 mM, 100% DMSO) • [8 points: 10 mM; 3.33 mM; 1.11 mM; 0.37 mM; 0.12 mM; 0.04 mM; 0.0137 mM; 0.0045 mM, 0.0015 mM] • prepare […] concentrated solution of each compound concentration (top concentration 300 μM, 3% DMSO) in assay buffer • [concentrations: 300 μM; 100 μM; 33.3 μM; 11.1 μM; 3.70 μM; 1.23 μM; 0.41 μM; 0.137 μM] • prepare substrate (10 mM) at concentration of 1 mM in assay buffer • assay mix: 4 μl compound/well of each concentration+24 μl assaybuffer/well+8 μl KMO mouse enzyme+4 μl 1 mM substrate (final concentration=100 μM) • [final compound top concentration: 30 μM; 0.3% DMSO] • [final compound bottom concentration: 0.0137 μM; 0.3% DMSO] • positive control: 4 μl […] FCE28833 in assay buffer, 0.5% DMSO [final assay concentration=50 μM]+24 μl assaybuffer/well+8 μl KMO mouse enzyme+4 μl 1 mM substrate[final concentration=100 μM] • negative control: 28 μl assay buffer/well+8 μl KMO mouse enzyme+4 μl 1 mM substrate [final concentration=100 μM] • incubate 40 min at RT • add 40 μl/well 10% trichloro acetic acid in water to stop the assay and precipitate protein • centrifuge plate for 3 min at 4000 rpm • product detection by LC/MS (injection of 20 μl/well, 2 fold overfill of the 10 μl sample loop) Data Analysis:
IC50's are calculated using automated fitting algorithm (A+ Analysis).
Using the assay protocols substantially similar to those of Biology Example 3, the following compounds were tested.

[1] = compound at 30 μM, Biology Example 4 table, read-out: Percent Inhibition at 30 μM
[2] = compound at 30 μM, tables of Methods 1-6, read-out: % Inhibition at 30 μM

T1 sequence (Q91WN4 whole entry): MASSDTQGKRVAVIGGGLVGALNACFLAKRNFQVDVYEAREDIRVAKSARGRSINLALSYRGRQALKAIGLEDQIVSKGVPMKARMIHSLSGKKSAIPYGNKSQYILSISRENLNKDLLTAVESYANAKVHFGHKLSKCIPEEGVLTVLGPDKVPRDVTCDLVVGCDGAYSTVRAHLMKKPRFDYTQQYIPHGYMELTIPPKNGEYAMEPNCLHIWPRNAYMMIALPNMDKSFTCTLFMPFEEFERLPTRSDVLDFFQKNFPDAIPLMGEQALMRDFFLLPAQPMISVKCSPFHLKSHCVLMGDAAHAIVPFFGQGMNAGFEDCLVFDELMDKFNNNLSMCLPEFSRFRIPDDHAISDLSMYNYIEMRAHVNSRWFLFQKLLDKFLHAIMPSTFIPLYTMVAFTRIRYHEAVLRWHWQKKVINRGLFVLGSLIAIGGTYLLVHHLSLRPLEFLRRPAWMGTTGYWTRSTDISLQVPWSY

inhibition at 30 µM [1] [%]	inhibition at 30 µM [2] [%]	inhibition at 10 µM (Biology Example 4 table, read-out: Percent Inhibition (at 10 uM)) [%]	inhibition at 10 µM (table of Method 2, read-out: % Inhibition (at 10 uM)) [%]	% Inhibition at 30 μM (compound at 30 μM, tables of Methods 1-6, 30 µM) [%]	Structure (SMILES)
83.2	83.2				O=C(O)[C@H]1C[C@@H]1C(=O)c1ccsc1 [Example 2, Method 1, (1S,2S)-2-[(Thiophen-3-yl)carbonyl]cyclopropane-1-carboxylic acid]
100	100				O=C(O)[C@H]1C[C@@H]1C(=O)c1cc(Cl)c2occc2c1 [Example 1, Method 4, (1S,2S)-2-(7-Chloro-1-benzofuran-5-carbonyl)cyclopropane-1-carboxylic acid]
100	100				O=C(O)[C@H]1C[C@@H]1C(=O)c1cc(Cl)c2ncccc2c1 [Example 3, Method 3, (1S,2S)-2-(8-Chloroquinoline-6-carbonyl)cyclopropane-1-carboxylic acid]
80.3	80.3				O=C(O)[C@H]1C[C@@H]1C(=O)c1cccs1 [Example 3, Method 1, (1S,2S)-2-[(Thiophen-2-yl)carbonyl]cyclopropane-1-carboxylic acid]
		28.7	28.7		O=C(O)[C@H]1C[C@@H]1C(=O)c1nccs1 [Example 1, Method 2, (1S,2S)-2-[(1,3-Thiazol-2-yl)carbonyl]cyclopropane-1-carboxylic acid]
101	101				O=C(O)[C@H]1C[C@@H]1C(=O)c1cc(Cl)c2nccnc2c1 [Example 2, Method 3, (1S,2S)-2-(8-Chloroquinoxaline-6-carbonyl)cyclopropane-1-carboxylic acid]
91.8	91.8				O=C(O)[C@H]1C[C@@H]1C(=O)c1nc2ccccc2s1 [Example 2, Method 2, (1S,2S)-2-[(1,3-Benzothiazol-2-yl)carbonyl]cyclopropane-1-carboxylic acid]
	102				Cc1cc2cc(C(=O)[C@H]3C[C@@H]3C(=O)O)cc(Cl)c2o1 [Example 1, Method 6, (1S,2S)-2-(7-chloro-2-methyl-1-benzofuran-5-carbonyl)cyclopropane-1-carboxylic acid]
74.5				98.3	Cc1nc2ccc(C(=O)[C@H]3C[C@@H]3C(=O)O)cc2s1 [Example 1, Method 3, (1S,2S)-2-(2-Methyl-1,3-benzothiazole-6-carbonyl)cyclopropane-1-carboxylic acid]
45.6	45.6				O=C(O)[C@H]1C[C@@H]1C(=O)c1ccccn1 [Example 3, Method 2, (1S,2S)-2-[(Pyridin-2-yl)carbonyl]cyclopropane-1-carboxylic acid]
101	101				O=C(O)[C@H]1C[C@@H]1C(=O)c1ccc(Cl)s1 [Example 1, Method 1, (1S,2S)-2-[(5-Chlorothiophen-2-yl)carbonyl]cyclopropane-1-carboxylic acid]
